Reference: PMC2724708, “Adenosine Kinase of T. b. rhodesiense Identified as the Putative Target of 4-[5-(4-phenoxyphenyl)-2H-pyrazol-3-yl]morpholine Using Chemical Proteomics” (PLoS Neglected Tropical Diseases, 2009)
Read-outs that look alike come from different tables or passages of the source.

Legend:
[1] = biological target: T1, adenosine kinase of T. b. rhodesiense (TbrAK) (Trypanosoma brucei rhodesiense, UniProt Q584S0); assay: HPLC activity assay for TbrAK; assay type: biochemical
T1 sequence (Q584S0 1-345): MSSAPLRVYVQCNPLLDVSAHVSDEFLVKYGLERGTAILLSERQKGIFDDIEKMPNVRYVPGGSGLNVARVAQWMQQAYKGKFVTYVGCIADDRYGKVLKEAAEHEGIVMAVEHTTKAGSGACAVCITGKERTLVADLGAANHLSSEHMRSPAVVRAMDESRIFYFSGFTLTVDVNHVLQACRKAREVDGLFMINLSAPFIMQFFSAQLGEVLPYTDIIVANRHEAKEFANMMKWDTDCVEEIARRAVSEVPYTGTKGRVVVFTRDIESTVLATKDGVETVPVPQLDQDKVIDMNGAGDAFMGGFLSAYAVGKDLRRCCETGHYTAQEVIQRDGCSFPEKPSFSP
Method: TbrAK catalyzes the ATP-dependent phosphorylation of the 5′-hydroxyl moiety of adenosine to form AMP and ADP. The activity assay was based on HPLC separation of substrate and products (adenosine, AMP, ADP, and ATP). The mobile phase consisted of 35 mM KH2PO4, 6 mM tetrabutylammonium hydrogensulfate, (pH 7.0, adjusted with KOH), 125 mM EDTA, and 1% (v/v) acetonitrile. The separation was performed isocratically at a flow-rate of 1.5 ml/min and monitored at 254 nm. The standard reaction in 75 µl total volume containing 0.5 mM ATP, 0.5 mM adenosine, 0.5 mM MgCl2, 1% DMSO in buffer E1 (20 mM Hepes, 150 mM NaCl, pH 7.0) was started with the addition of 2 µg TbrAK (final concentration 0.7 µM) and incubated at 37°C for 10 min while shaking vigorously (600 rpm). […] All reactions were stopped by adding 75 µl mobile phase. 50 µl of the sample volume were injected for analysis and the resulting ADP/ATP ratios were calculated and used as a measure of activity. For comparative reasons the activity recorded in absence of compound was set to 100%. The mean of three independent measurements are reported.

[2] = biological target: T1, adenosine kinase of T. b. rhodesiense (TbrAK); assay: Thermal stability assay (CD spectroscopy) regarding TbrAK; assay type: binding
Method: Thermal unfolding of TbrGAPDH and TbrAK was studied by circular dichroism (CD) spectroscopy at 220 nm within the temperature range of 20–90°C using a heating rate of 40°C/h.
(§1) TbrAK in buffer E1 (20 mM Hepes, 150 mM NaCl, pH 7.0) was used at 0.5 mg/ml (final concentration 13 µM). All measurements were done in a 0.5 mm cell and contained 0.1 % DMSO and 2.5 mM EDTA to prevent enzyme activity. Thermal stability was analyzed in presence of 500 µM substrate to record the maximum stability limit, whereas compounds 1 to 5 were used at a concentration of 50 µM, being the highest concentration achievable for compound 2, to allow comparison of all compounds at the same concentration. For evaluation of the CD spectra, the buffer spectrum was subtracted from the protein CD spectrum. All thermal unfolding curves were fitted to a two-state model that had been published recently. The mean of three independent experiments are reported. […]

[3] = system: bloodstream-form T. b. brucei TbAK RNAi cells; assay: Drug sensitivity test (Alamar blue) on TbAK RNAi knock-down mutant; assay type: cell-based; conditions: Trypanosoma brucei
Method: The construction of the T. b. brucei adenosine kinase gene knock-down mutant has been described recently. Expression of a stem-loop construct targeting TbAK was induced by addition of 10 µg/ml tetracycline to the medium. Down-regulation of TbAK expression was verified by Northern blotting. Parasites were cultivated and drug sensitivity was tested using the Alamar blue test. IC50 values were calculated by nonlinear fitting to the sigmoidal dose-response curve using Origin® software. The assays were performed in triplicates for at least four times.

[4] = biological target: T2, glycosomal T. b. rhodesiense glyceraldehyde-3-phosphate dehydrogenase (TbrGAPDH) (Trypanosoma brucei brucei, UniProt P22512); assay: Thermal stability assay (CD spectroscopy) regarding TbrGAPDH; assay type: binding; conditions: compound at 50 µM
T2 construct: made in house; host or cells: E. coli BL21(DE3), pET28a
Method: Thermal unfolding of TbrGAPDH and TbrAK was studied by circular dichroism (CD) spectroscopy at 220 nm within the temperature range of 20–90°C using a heating rate of 40°C/h. […]
All measurements were done in a 0.5 mm cell and contained 0.1 %
as §1, with “DMSO” for “TbrAK in buffer E1 (20 mM Hepes, 150 mM NaCl, pH 7.0) was used at 0.5 mg/ml (final concentration 13 µM). All measurements were done in a 0.5 mm cell and contained 0.1 % DMSO”

[5] = system: T. b. rhodesiense; design: method as in PMID 17949068; conditions: in vitro, blood stage parasite; read-out: IC50 against blood stage T.b. rhodesiense; cited from earlier work
[6] = design: method as in PMID 17949068; conditions: cited from earlier work
[7] = biological target: T1, adenosine kinase of T. b. rhodesiense (TbrAK); assay: Radiometric assay for kinetic study of TbrAK; conditions: in presence of compound 1 (33.4 µM), 167 µM ATP
Method: Kinetic constants for adenosine phosphorylation by TbrAK were obtained by monitoring the conversion of [2-^3H]adenosine to [2-^3H]AMP. Reactions were executed at 37°C in a final volume of 30 µl containing 20 mM Hepes (pH 7.0), 50 mM NaCl, 167 µM ATP, 167 µM MgCl2, 0.34% BSA, and 0.34% DMSO. […] The concentration of [2-^3H]adenosine (0.1–12 µM) was chosen in consideration of Michaelis–Menten conditions for initial velocity measurements. The reaction was started by the addition of 1 ng (0.88 nM) TbrAK. The reactions were incubated and 5 µl aliquots were spotted on 5 mm diameter DE81-cellulose disks placed in a 96-well plate to stop the reaction. The disks were washed 3 times with 250 µl 5 mM ammonium formate, once with H2O, transferred to scintillation vials, and then soaked with 2 ml of a displacement solution (100 mM HCl, 200 mM KCl) and gently shaken for 1 minute to elute the phosphorylated products [9]. After adding 10 ml scintillation liquid, the samples were counted in scintillation counter. Km and Vmax with respect to adenosine and Ki for adenosine substrate-inhibition in absence and presence of compound 1 were determined by non-linear fit of the data to the substrate-inhibition model described elsewhere [10].

T2 sequence (P22512 whole entry): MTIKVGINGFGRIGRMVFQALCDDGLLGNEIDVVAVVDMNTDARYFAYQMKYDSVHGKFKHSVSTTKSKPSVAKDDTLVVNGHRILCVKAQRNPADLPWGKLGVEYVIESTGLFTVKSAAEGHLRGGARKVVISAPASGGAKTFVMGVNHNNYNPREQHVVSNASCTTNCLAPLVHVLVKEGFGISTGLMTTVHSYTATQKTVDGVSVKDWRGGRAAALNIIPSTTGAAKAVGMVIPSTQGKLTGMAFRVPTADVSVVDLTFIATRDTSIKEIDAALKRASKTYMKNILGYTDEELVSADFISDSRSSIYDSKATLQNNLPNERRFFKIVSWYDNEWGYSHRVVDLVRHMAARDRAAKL

Which activity at 50 µM ([1]; 50 µM compound, 0.7 µM TbrAK, 10 min, 37°C, ADP/ATP ratio, read-out: TbrAK activity in presence of compound (% of activity without compound)) does the source give for c1ccc(Oc2ccc(-c3cc(N4CCOCC4)[nH]n3)cc2)cc1 [compound 1, 4-[5-(4-phenoxyphenyl)-2H-pyrazol-3-yl]morpholine] here?
The activity at 50 µM was 245 ± 3%.

What about the EC50 ([1]; 0.5 mM ATP, 0.5 mM adenosine, 0.7 µM TbrAK, read-out: EC50 of TbrAK activation (HPLC assay)) of the same molecule?
Its EC50 is 38.9 ± 0.9 µM.

What about the fold induction at 50 µM ([1]; 10 min, pH 7, 50 µM compound, read-out: fold increase of TbrAK activity) of the same molecule?
Its fold induction at 50 µM is 2.5.

What about the “concentration dependence of the activation effect” value ([1]; range 1–750 µM, up to solubility limit) of the same molecule?
The value was “concentration dependent”.

What about the “Tm of TbrAK” value ([2]; compound at 50 µM, 13 µM TbrAK) of the same molecule?
The value was 47.9±0.1 °C.

And the ΔTm at 50 µM ([2]; read-out: ΔTm of TbrAK)?
The ΔTm at 50 µM was 4.8 °C.

What about the IC50 ([3]; read-out: IC50 on TbAK RNAi cells, induced) of the same molecule?
Its IC50 is 0.271 ± 0.025 µM.

What about the IC50 ([3]; read-out: IC50 on TbAK RNAi cells, non-induced) of the same molecule?
The IC50 was 0.131 ± 0.043 µM.

And the “Tm of TbrGAPDH” value [4]?
Its value is 46.8 ± 0.1 °C.

What about the IC50 [5] of the same molecule?
The IC50 was 1 µM.

What about the “cytotoxicity / general toxicity” value [6] of the same molecule?
Its value is “low cytotoxicity”.

What about the “Ki adenosine (substrate-inhibition)” value [7] of the same molecule?
Its value is 78.4 ± 2.2 µM.

What about the Vmax [7] of the same molecule?
The Vmax was 14.20 ± 0.14 nM/min.

What about the kcat [7] of the same molecule?
Its kcat is 0.27 ± 0.01 s⁻¹.
